According to patent US5874583A, “2,3-dihydro-1H-isoindole derivatives” (Hoechst Marion Roussel Inc., priority 1997, dated 1999):
Structures can show the parent of a compound that is named as a salt.

What follows are molecules tested on serotonin (5-hydroxytryptamine (5HT)) uptake (assay: [3H]-Serotonin uptake in rat whole brain and hypothalamic synaptosomes). Settings: [3H]-5HT 50 nM, 37° C., 5 minutes.
Type: biochemical
Procedure: [^3 H]-Serotonin Uptake in Rat Whole Brain and Hypothalamic Synaptosomes
This activity is determined in an assay which measures [^3 H]-serotoninuptake in rat whole brain and hypothalamic synaptosomes. The assay described below is used as a biochemical screen for potential antidepressants which block serotonin (5-hydroxytryptamine (5HT)) uptake.
Male CR Wistar rats (100-125 g)
1. Krebs-Henseleit Bicarbonate Buffer, pH 7.4 (KHBB):
The batch is aerated for 60 minutes with 95% 02 /5% CO2, the pH is checked to insure it is at 7.4±0.1, then add bovine serum albumin (Sigma cat# A-7906) 1 mg/ml.
3. Sucrose solution: 0.32M sucrose containing 5 mM HEPES and 0.1 mM EDTA; pH to 7.3 using Tris base.
4. A 0.1 mM stock solution of serotonin creatinine SO4 is made up in 0.01N HCl. This is used to dilute the specific activity of the radiolabeled 5HT.
The final desired concentration of [^3 H]-5HT in the assay is 50 nM. The dilution factor is 0.8. The KHBB is made up to contain 62.5 nM of [^3 H]-5HT.
6. For most assays, a 0.5 mM stock solution of the test compound is made up initially in either 10 μl of glacial acetic acid, 100 μl DMSO or 10 μl of the recrystallization solvent, to which is added approximately 10 ml of distilled water. Compounds are initially screened in duplicate at 3 concentrations (10^-8, 10^-7 and 10^-6 M) made up in water.
The Percoll method for preparing synaptosomes has been modified from Nagy, A., Delgado-Escueta, A. V. J. Neurochem. 43, 1114 (1984) and Dunkley, P. R., Jarvie, R. E., Heath, J. W., Kidd, G. J., Rostas, J. A. P. Brain Research 372, 115 (1986). Male Wistar rats are decapitated and the brain rapidly removed. Whole brain (minus cerebellum) is weighed and homogenized in 15 volumes of ice cold Sucrose solution using a Potter-Elvejhem homogenizer. The following procedures are performed on ice. Homogenization should be done with 4-5 up and down strokes at medium speeds (setting 4.5 to 5) to minimize synaptosome lysis. The homogenate is centrifuged at 1000 g (3000 rpm, Sorvall SS-34 rotor) for 10 minutes at 0°-4° C.
The Percoll gradient tubes are carefully placed into a Beckman SW-28 swinging bucket rotor and spun in a Beckman XL90 ultracentrifuge using the following program: speed, 11,000 rpm (15,000 g) for 30 minutes at 4° C.; slow acceleration and deceleration (acceleration setting 9; deceleration setting 3). Tubes are carefully removed, and the top layer and the top part of the middle (red) layer are discarded using a pasteur pipette. The synaptosomes are located in the white fluffy band at the interface between the 10% and 21% Percoll layers. This is carefully removed, placed in a centrifuge tube, diluted with KHBB and spun at 21,000 g (13,000 rpm, Sorvall SS-34 rotor). The pellet (synaptosomes) is resuspended in KHBB (10 vol per gram original brain wet weight; 1 brain minus cerebellum weighs approximately 1.2 g; 2.5 brains are needed per typical assay).
200 μl of the tissue suspension are added to each of 24 tubes (at a time) containing the 20 μl of vehicle or drug on ice. Three minutes later, 800 μl of KHBB containing [^3 H]-5HT are added, and the tubes are vortexed. The rack containing the 24 tubes is moved from the ice bath to a water bath set at 37° C. The tubes are incubated for 5 minutes under 95% O2 /5% CO2.
`CCC1c2ccccc2CN1c1ccncc1` (centres unmarked) [2,3-Dihydro-1-Ethyl-2-(4-Pyridyl)-1H-Isoindole Maleate] was tested, and the IC50 was 1140 nM. For `CC1c2ccccc2CN1c1ccncc1` (centres unmarked) [2,3-Dihydro-1-Methyl-2-(4-Pyridyl)-1H-Isoindole Fumarate], the IC50 was 736 nM. In the case of `CCCC1c2ccccc2CN1c1ccncc1` (centres unmarked) [2,3-Dihydro-1-Propyl-2-(4-Pyridyl)-1H-Isoindole Maleate], the IC50 is reported as 725 nM. Work on `c1ccc2c(c1)CN(c1ccncc1)C2` [2,3-Dihydro-2-(4-Pyridyl)-1H-Isoindole Maleate] yielded an IC50 of 880 nM. `CC(C)CC1c2ccccc2CN1c1ccncc1` (centres unmarked) [2,3-dihydro-1-(2-methylpropyl)-2-(4-pyridyl)-1H-isoindole maleate] showed an IC50 of 849 nM.
